# ChEMBL document CHEMBL4118041, “Targeted Dereplication of Microbial Natural Products by High-Resolution MS and Predicted LC Retention Time” (2017)
# Test system: A2058
# Assay: Cytotoxicity against human A2058 cells assessed as survival at 250 uM relative to control
# Assay type: functional
# Details: read-out: Survival
compound,measurement,value
CC1=C(NC(=O)CC(C)C)C(=O)N(CCCC(=O)O)C1=O,viability at 250 µM,100%
